Experiments:
[1] = test system: amnesia-inducing effect of an electric shock; test: Mnemic activity: antagonism of the amnesia-inducing effect of an electric shock; assay type: in vivo, rat (female Wistar); conditions: for minimal effective dose: sc, rat, subcutaneous, 5 minutes after the end of the learning session, retention measured 24 hours after the learning session, read-out: Active dose (minimum active dose reestablishing a normal threshold of between 8 to 11 graduations); for mnemic activity relative to the racemate: times more active than the racemate (compound A)
Excerpt: The principle of the test is as follows:
The reaction of withdrawal of a rat's paw when subjected to an increasing and measured pressure is observed. The pressure at which the withdrawal reaction takes place is referred to as the "reaction threshold". This threshold is expressed by the number of graduations read diectly from the scale of the apparatus used (analgesia-meter UGO BASILE Milan) and thus corresponds to the minimum pressure which, applied to the paw of the animals, causes the paw to be withdrawn (learning session). Three measurements are carried out at intervals of 30 minutes.
When tested 24 hours after the end of the learning session, control animal show a natural retention of the previous test, which corresponds to a threshold of the order of 8 to 11 graduations.
The amnesia-inducing effect is produced by applying a trans-temporal supramaximal electric shock (100 mA, 120 Volts, 0.2 sec.) to the rats 15 minute after the end of the learning session. This amnesia-inducing effect due to the electric shock induces, when measuring the retention 24 hours later, an increase of the avoidance threshold which now corresponds to that of naive animals (which have not undergone a learning session), that is to say a threshold of between 14 and 19 graduations.
For each compound to be tested the minimum active dose (in mg/kg) reestablishing a normal threshold of between 8 to 11 graduations 24 hours after the learning session in animals subjected to electric shock is determined.
The compounds to be tested are administered subcutaneously, as a 10% solution or suspension, to groups of 10 rats (female Wistar rats weighing 150 g) 5 minutes after the end of the learning session. At the same time, a control group of 10 rats is given only a 0.9% aqueous sodium chloride solution.

[2] = Toxicity: LD 50 after intravenous administration in the male mouse; assay type: in vivo; conditions: in vivo; male mouse, intravenous
Excerpt: (§1) The following table gives, for compounds A and B, the LD 50 in mg/kg determined on the male mouse and the male rat after intravenous administration

[3] = test system: male mouse; test: as above; assay type: in vivo
Excerpt: as §1

[4] = Toxicity: LD 50 after intravenous administration in the male rat; conditions: in vivo
Excerpt: as §1

SMILES	minimal effective dose [1] [mg/kg]	mnemic activity relative to the racemate [1] [times]	mnemic activity relative to the racemate ([1]; listed as dextrorotatory enantiomer of alpha-ethyl-2-oxo-1-pyrrolidineacetamide)	LD50 [2] [mg/kg]	toxicity relative to the racemate ([3]; times lower toxicity than the racemic form, based on LD 50 in mouse and rat) [times]	toxicity relative to the racemate (in words) ([3]; versus racemate (product A), LD 50 mouse and rat, intravenous)	LD50 [4] [mg/kg]
CCC(C(N)=O)N1CCCC1=O (racemic) [compound A, alpha-ethyl-2-oxo-1-pyrrolidineacetamide]	1.7	–	–	–	–	–	–
CC[C@H](C(N)=O)N1CCCC1=O [compound B, (R)-alpha-ethyl-2-oxo-1-pyrrolidineacetamide]	0.17	10	about 10 times	5600	3	three times less toxic	5000
